Results: US7247725B2, “Gamma-aminoamide modulators of chemokine receptor activity” (Merck & Co., Inc., priority 2002, dated 2007)

Molecular target: CCR-2 (Homo sapiens, UniProt P41597)
Test: relative activity of separated diastereomers (assay not stated)
Settings: single isomers separated by chiral HPLC (ChiralPak OD); fast vs slow isomer

CCR-2, sequence (P41597 whole entry): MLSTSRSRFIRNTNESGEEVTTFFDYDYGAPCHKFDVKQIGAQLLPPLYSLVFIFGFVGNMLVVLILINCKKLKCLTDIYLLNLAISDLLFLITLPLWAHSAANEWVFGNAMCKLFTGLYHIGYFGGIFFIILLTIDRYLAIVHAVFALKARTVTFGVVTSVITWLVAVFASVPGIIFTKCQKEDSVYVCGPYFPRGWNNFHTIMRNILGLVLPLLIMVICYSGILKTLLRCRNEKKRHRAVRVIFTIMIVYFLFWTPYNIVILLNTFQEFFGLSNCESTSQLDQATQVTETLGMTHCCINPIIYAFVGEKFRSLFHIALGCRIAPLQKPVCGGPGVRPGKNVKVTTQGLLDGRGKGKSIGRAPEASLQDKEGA

## CC(=O)Nc1nc([C@@H](CCN2CC[C@@]3(C=Cc4ccccc43)[C@@H](C)C2)C(=O)NCc2cc(C(F)(F)F)cc(C(F)(F)F)c2)cs1 [Example 52h-(R)]
  relative activity of the two diastereomers epimeric α to the amide carbonyl: less active

## CC(=O)Nc1nc([C@H](CCN2CC[C@@]3(C=Cc4ccccc43)[C@@H](C)C2)C(=O)NCc2cc(C(F)(F)F)cc(C(F)(F)F)c2)cs1 [Example 52h-(S)]
  relative activity of the two diastereomers epimeric α to the amide carbonyl: more active
